From US20100168233A1, “TERBINAFINE FORMULATION” (POWER PAPER LTD, priority 2007, published 2010)
Counter-ions that a name gives are not always drawn. Like-named read-outs stand apart in the source and are kept apart here. Blank lines part the entries; values can stand above or below the compound they belong to.

Experiments:
[1] = In vitro testing of iontophoretic delivery of terbinafine forms and hydrogel formulations to the nail bed
Text: The acetic acid terbinafine salt may be used in the preparation of a medication for the treatment of any suitable disorder, such as the treatment of a fungal infection. In one aspect, the acetic acid terbinafine salt may be for treatment of onychomycosis.
The terbinafine acetate and/or mixture of terbinafine and acetic acid may be added to a hydrogel.

dermatophytes = conditions: cited from earlier work
[2] = cited from earlier work
[3] = cited from earlier work; remark: listed apart in the source

delivery of terbinafine to the nail bed [1]: about 45 μg/cm^2
Compound: CN(C/C=C/C#CC(C)(C)C)Cc1cccc2ccccc12 [terbinafine HCl, terbinafine hydrochloride]
minimum inhibitory concentration (MIC) for dermatophytes (dermatophytes): about 0.0015 μg/ml

delivery of terbinafine to the nail bed [1]: about 10 μg/cm^2
Compound: CN(C/C=C/C#CC(C)(C)C)Cc1cccc2ccccc12 [terbinafine base, N,6,6-trimethyl-N-(naphthalen-1-ylmethyl) hept-2-en-4-yn-1-amine]
water solubility ([2]; listed as Terbinafine base): significantly less water soluble

Compound: CN(C/C=C/C#CC(C)(C)C)Cc1cccc2ccccc12 [terbinafine, N,6,6-trimethyl-N-(naphthalen-1-ylmethyl) hept-2-en-4-yn-1-amine]
pKa of terbinafine [3]: about 7.1
solubility in methanol and ethanol [2]: very soluble
water solubility [2]: low

Compound: terbinafine acetate
delivery of terbinafine to the nail bed ([1]; in vitro, iontophoretic delivery, similar conditions): about 150 μg/cm^2
